Measurements: publication PMC7532004, “Site-specific effects of neurosteroids on GABAA receptor activation and desensitization” (eLife, 2020)

Key:
[1] = biological target: T1, α1(Q242L)β3(Y284F) GABAAR (UniProt P28472+P62813, Q268L/Y309F); experiment: Two-electrode voltage clamp in Xenopus laevis oocytes, intersubunit + β3 intrasubunit mutant; format: cell-based; details: 3 μM 3α5αP, 1 mM GABA + 40 μM pentobarbital
T1 construct: expressed in transfected cells; host or cells: Xenopus laevis oocytes injected with cRNA
Experimental: (§1) The wild-type and mutant α1β3 GABAAR were expressed in oocytes from the African clawed frog (Xenopus laevis). Frogs were purchased from Xenopus 1 (Dexter, MI), and housed and cared for in a Washington University Animal Care Facility under the supervision of the Washington University Division of Comparative Medicine. Harvesting of oocytes was conducted under the Guide for the Care and Use of Laboratory Animals as adopted and promulgated by the National Institutes of Health. The animal protocol (No. 20180191) was approved by the Animal Studies Committee of Washington University in St. Louis. The oocytes were injected with a total of 12 ng cRNA. The ratio of cRNAs was 5:1 ratio (α1:β3) to minimize the expression of β3 homomeric receptors. Following injection, the oocytes were incubated in ND96 (96 mM NaCl, 2 mM KCl, 1.8 mM CaCl2, 1 mM MgCl2, 5 mM HEPES; pH 7.4) with supplements (2.5 mM Na pyruvate, 100 U/ml penicillin, 100 μg/ml streptomycin and 50 μg/ml gentamycin) at 16°C for 2 days prior to conducting electrophysiological recordings. The electrophysiological recordings were conducted at room temperature using standard two-electrode voltage clamp. The oocytes were clamped at −60 mV. The chamber (RC-1Z, Warner Instruments, Hamden, CT) was perfused with ND96 at 5–8 ml/min. […] Current traces were analyzed with Clampfit (Molecular Devices). […]

α1(N408A/Y411F)β3 GABAAR = experiment: Two-electrode voltage clamp in Xenopus laevis oocytes, N408A/Y411F mutant; format: cell-based; details: 3 μM 3β5αP, 1 mM GABA; α1(N408A/Y411F)β3 vs WT
Experimental: as §1

α1β3(Y284F) GABAAR = experiment: Two-electrode voltage clamp in Xenopus laevis oocytes, Y284F mutant; format: cell-based; details: 3 μM 3β5αP, 1 mM GABA; α1β3(Y284F) vs WT
Experimental: as §1

[2] = biological target: T2, α1(Q242L/N408A/Y411F)β3(Y284F) GABAAR (UniProt P28472+P62813, N434A/Q268L/Y309F/Y437F); experiment: Two-electrode voltage clamp in Xenopus laevis oocytes, all three sites mutated; format: cell-based; details: 3 μM 3β5αP, 1 mM GABA + 25 μM pentobarbital
T2 construct: expressed in transfected cells; host or cells: Xenopus laevis oocytes injected with cRNA
Experimental: as §1

[3] = biological target: T3, α1β3 GABAARs on intact HEK cell surfaces (Homo sapiens, UniProt P14867+P28472); experiment: [3H]muscimol binding to intact HEK cells (cell surface vs total receptors); details: 10 μM KK148; 3 nM [3H]muscimol; intact vs permeabilized HEK cells
T3 construct: inserted between the fourth and fifth residues of the mature peptide; photolabeling full-length heteropentameric GABAARs in native membranes; expressed in transfected cells
T3 sequence (P14867 28-456): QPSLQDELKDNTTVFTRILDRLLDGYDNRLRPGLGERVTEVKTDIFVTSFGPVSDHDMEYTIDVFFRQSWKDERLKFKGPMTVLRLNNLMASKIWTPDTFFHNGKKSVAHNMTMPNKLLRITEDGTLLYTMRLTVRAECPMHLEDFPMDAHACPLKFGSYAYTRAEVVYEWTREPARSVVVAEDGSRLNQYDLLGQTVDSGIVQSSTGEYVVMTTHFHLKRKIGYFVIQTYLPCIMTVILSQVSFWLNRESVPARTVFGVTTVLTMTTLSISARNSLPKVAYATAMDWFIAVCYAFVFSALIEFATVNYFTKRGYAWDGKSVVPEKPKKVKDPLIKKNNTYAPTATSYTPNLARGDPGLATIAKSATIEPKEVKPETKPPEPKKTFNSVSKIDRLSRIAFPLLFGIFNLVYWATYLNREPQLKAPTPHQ
T3 sequence (P28472 26-473): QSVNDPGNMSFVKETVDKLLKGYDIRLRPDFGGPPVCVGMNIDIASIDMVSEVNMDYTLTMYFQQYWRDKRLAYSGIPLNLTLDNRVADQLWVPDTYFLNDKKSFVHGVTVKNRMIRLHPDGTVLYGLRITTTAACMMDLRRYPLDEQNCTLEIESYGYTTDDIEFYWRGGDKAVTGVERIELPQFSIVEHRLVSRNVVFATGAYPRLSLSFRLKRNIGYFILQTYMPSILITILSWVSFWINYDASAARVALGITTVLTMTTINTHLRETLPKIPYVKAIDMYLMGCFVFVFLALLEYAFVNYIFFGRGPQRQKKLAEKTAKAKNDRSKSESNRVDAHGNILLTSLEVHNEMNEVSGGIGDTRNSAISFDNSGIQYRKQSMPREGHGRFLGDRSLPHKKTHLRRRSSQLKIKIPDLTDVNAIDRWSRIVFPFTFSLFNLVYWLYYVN
Experimental: HEK cells were harvested by gently washing dishes with buffer containing 10 mM sodium phosphate (pH 7.5), 150 mM sodium chloride twice. The cells were collected by centrifugation at 500 g at 4°C for 5 min, and resuspended in isotonic (10 mM sodium phosphate, 150 mM sodium chloride, pH 7.5) or hypotonic (10 mM sodium phosphate, pH 7.5) buffer to prepare two different conditions for radioligand binding to intact cells [isotonic buffer for cell surface receptors; hypotonic buffer for total receptors (cell surface receptors + intracellular receptors)]. The cells were incubated on ice for 2 hr, after which the sodium chloride concentration was adjusted to be isotonic before the radioligand binding procedure. HEK cells were aliquoted to assay tubes (20 samples/150 mm dish) in a total volume of 1 ml, and incubated with 3 nM [^3H]muscimol ±10 μM KK148 for 1 hr on ice in the dark.

CC(=O)[C@H]1CC[C@H]2[C@@H]3CC[C@H]4C[C@H](O)CC[C@]4(C)[C@H]3CC[C@]12C [3α5αP, allopregnanolone]
Inhibition of steady-state current, effect of β3 intrasubunit site mutation [1]: markedly reduced

CC(=O)[C@H]1CC[C@H]2[C@@H]3CC[C@H]4C[C@@H](O)CC[C@]4(C)[C@H]3CC[C@]12C [3β5αP, epi-allopregnanolone]
Prevention of 3β5αP-enhanced desensitization by mutation (α1(N408A/Y411F)β3 GABAAR): ~ 67%
Prevention of 3β5αP-enhanced desensitization by mutation (α1β3(Y284F) GABAAR): ~ 67%
Desensitizing effect with combined mutations of all three binding sites [2]: not completely eliminated

C#CCCO[C@H]1CC[C@H]2[C@@H]3CC[C@H]4CC5(CC[C@]4(C)[C@H]3CC[C@]12C)N=N5 [KK148]
Enhancement of specific [3H]muscimol binding in intact cells [3]: enhanced
